Laboratory results published in patent US20010044151A1, “Ligands for modulating the expression of exogenous genes via an ecdysone receptor complex” (priority 1998, published 2001).

Columns and labels:
[1] = biological target: CfEcR(CDEF)-GST and CfUSP-GST fusion proteins; experiment: Competitive 3H-ponasterone A binding assay, bacterial GST fusion proteins; set-up: species or system Choristoneura fumiferana; details: bacterial CfEcR(CDEF)-GST/CfUSP-GST extracts, 3H-ponasterone A displacement
Description: Bacterial glutathion-S-transferase (GST) fusion proteins of the spruce budworm (Choristoneura fumiferana) EcR (CfEcR), containing CDEF domains only, and ultraspiracle protein (CfUSP) were also used in radioligand displacement assays. cDNA encoding the CDEF domains of CfEcR were constructed following PCR amplification using primers that contain BamH1 and EcoRI sites (Perera S C, M Sundaram, Krell P J, Retnakaran A, Dhadialla T S, S R Palli, 1999 Arch. Insect Biochem. Physiol. 41 In Press). The PCR produce was digested with BamHI and EcoRI and cloned into pGEX-3X vector obtained from Pharmacia Biotech. CfUSP coding region was amplified using primers that contain BamH1 and EcoRI sites and cloned into to pGEX-2T vector obtained from Pharmacia Biotech. E. coli transformed with each of the two vectors were grown and induced to produce the fusion proteins as detailed in the Pharmacia Biotech GST-technical bulletin.
The concentrations of competitors that inhibited 50% of tritiated ponasterone A binding (IC50) was determined by incubating Kc or Plodia nuclear extracts or extracts of bacteria producing CfEcR(CDEF)-GST and CfUSP-GST fusions proteins with ^3H-ponasterone A (66,000 dpm per reaction) in the presence of a range of concentrations (0.1 nM to 10 μM) of test compounds. In the case of binding reactions using bacterial fusion proteins, 20 or one μl extract of bacteria producing CfEcR(CDEF)-GST or CfUSP-GST fusion proteins, respectively, were included per binding reaction. The assay conditions and determination of total and non-specific binding was as described above. The volume of competitor in solvent, like that for 20E or solvent alone, was kept at 1% of total reaction volume by using a 100 fold concentrated stock solution (i.e. a 100 fold dilution of stock solutions). The remainder of the assay was as described above. Each reaction was carried out in duplicate per concentration per test compound. […]

Spodoptera exigua = experiment: Translaminar movement into cotton leaves, mortality of neonate beet armyworm larvae; format: in vivo; details: versus CE-1
Experimental: A study was conducted to evaluate translaminar movement of two compounds into cotton leaves using neonate beet armyworm larvae, Spodoptera exigua, as the model system.
Two treatments were evaluated: emulsifiable concentrates of CE-1 and Ligand 3 (5% and 19%, respectively), at a concentration of 100 μg/ml to simulate spray tank concentrations. These treatments were then compared with plants treated with a chemical standard known to have excellent translaminar movement (emamectin benzoate, 0.16% EC [20 μg/ml], Merck & Co.) and with nontreated plants.
Four-week-old cotton, Gossypium hirsutum L. ev. Stoneville, plants were treated with each treatment by painting the top surface of a single replicate leaf/plant with a corresponding treatment. Plants were held in a controlled environment glasshouse maintained at 27° C. until needed. Residual effectiveness was evaluated by challenging treated and nontreated foliage with neonate beet armyworm larvae, Spodoptera exigua (Hubner), on 3 dates: 1, 7 and 14 days after treatment (DAT). On each sample date, the single treated leaf/plant was excised from each of five replicate plants per treatment. […] Mortality of larvae was recorded 4 days after infestation. […]
Percentage mortality data were transformed to the arcsine of the square-root and then analyzed by ANOVA using JMP (Ver. 3.2.1). […]

COc1cccc(C(=O)NN(C(=O)c2cc(C)cc(C)c2)C(C)(C)C)c1C [Ligand 3]
Bacterial CfECR log(1/IC50) [1]: 8.76 | Effectiveness at killing S. exigua larvae from translaminar movement (comparison in words) (Spodoptera exigua): significantly more effective than CE-1
